Assay results: patent publication US11857565B2, “Hydrophobic Auristatin F compounds and conjugates thereof” (priority 2018, dated 2024)
Read-outs that look alike come from different tables or passages of the source. Non-standard residues stand in square brackets, D forms with d. Residues, ends and D or L forms follow the SMILES beside them. *: point of attachment. Dolaproine = CO[C@@H]([C@@H]1CCCN1)[C@@H](C)C(=O)O; Dil = CC[C@H](C)[C@H](NC)[C@@H](CC(=O)O)OC; X12 = CCCCCCCCCCN(C)[C@H](C(=O)*)C(C)C; X11 = CCCCCCCCCN(C)[C@H](C(=O)*)C(C)C; X14 = CCCCCCCCN(C)[C@H](C(=O)*)C(C)C; X20 = CCCCCCCN(C)[C@H](C(=O)*)C(C)C; NMe2Val = CC(C)[C@@H](C(=O)*)N(C)C; X13 = CCCCCN(C)[C@H](C(=O)*)C(C)C; X9 = CCCCCCN(C)[C@H](C(=O)*)C(C)C; X10 = CCCCN(C)[C@H](C(=O)*)C(C)C; X15 = CCCN(C)[C@H](C(=O)*)C(C)C; X19 = CCN(C)[C@H](C(=O)*)C(C)C; NMeV = CN[C@H](C(=O)O)C(C)C

Experiments:
Type in all cases: cell-based
[1] = tested on: MDR− HL60 acute myeloid leukemia cell line; experiment: In vitro cytotoxicity (CellTiter-Glo cell proliferation assay), free drugs on HL60; settings: read-out: In vitro IC50 HL60 (MDR−)
Protocol: (§1) The cytotoxicity of an auristatin Ligand Drug Conjugate or free auristatin drug was measured by a cell proliferation assay employing the protocol described in Promega Corp. Technical Bulletin TB288; Mendoza et al., 2002, Cancer Res. 62:5485-5488), the methods of which is specifically incorporated by reference herein. Briefly, an aliquot of 100 μl of cell culture containing about […] (e.g., HL-60, SK-MEL-5, etc.) in medium is deposited in each well of a 96-well, opaque-walled plate. Control wells were prepared containing medium and without cells. Free Drug or conjugate is added to the experimental wells and incubated for 96 h and are then equilibrated to room temperature for approximately 30 minutes whereupon a volume of CellTiter-Glo™ reagent equal to the volume of cell culture medium present in each well is added. The contents are mixed for 2 minutes on an orbital shaker to induce cell lysis and the plate is incubated at room temperature for 10 minutes to stabilize the luminescence signal for recordation.

[2] = tested on: MDR+ HL60/RV acute myeloid leukemia cell line; experiment: In vitro cytotoxicity (CellTiter-Glo cell proliferation assay), free drugs on HL60/RV; settings: read-out: In vitro IC50 HL60/RV (MDR+)
Protocol: as §1

A375 Melanoma = experiment: In vitro cytotoxicity, free drugs on A375; settings: free drug
Protocol: as §1

[3] = In vitro cytotoxicity, free drugs on Colo-853; settings: free drug; read-out: In vitro IC50 Colo-853 Colon Cancer
Protocol: as §1

SK-MEL-5 Melanoma = experiment: In vitro cytotoxicity, free drugs on SK-MEL-5; settings: free drug
Protocol: as §1

SK-MEL-28 Melanoma = experiment: In vitro cytotoxicity, free drugs on SK-MEL-28; settings: free drug
Protocol: as §1

A2058 Melanoma = experiment: In vitro cytotoxicity, free drugs on A2058; settings: free drug
Protocol: as §1

IGR-37 Melanoma = experiment: In vitro cytotoxicity, free drugs on IGR-37; settings: free drug
Protocol: as §1

| Structure (SMILES) | IC50 ([1]; Homo sapiens, HL-60, 96 h) | IC50 ([2]; Homo sapiens, HL-60, 96 h) | also measured |
| --- | --- | --- | --- |
| CC[C@H](C)[C@@H]([C@@H](CC(=O)N1CCC[C@H]1[C@H](OC)[C@@H](C)C(=O)N[C@@H](Cc1ccccc1)C(=O)O)OC)N(C)C(=O)[C@@H](NC(=O)[C@H](C(C)C)N(C)C)C(C)C [Compound 1, Auristatin F] (NMe2Val-V[Dil][Dolaproine]F-OH) | – | – | IC50 ([1]; free drug, 96 h incubation): 137 nM; IC50 ([2]; free drug, 96 h incubation): 388 nM |
| CC[C@H](C)[C@@H]([C@@H](CC(=O)N1CCC[C@H]1[C@H](OC)[C@@H](C)C(=O)N[C@@H](Cc1ccccc1)C(=O)O)OC)N(C)C(=O)[C@@H](NC(=O)[C@@H](NC)C(C)C)C(C)C [Compound 2, Monomethyl auristatin F, reference compound] (H-[NMeV]V[Dil][Dolaproine]F-OH) | – | – | IC50 (A375 Melanoma): 48.9 nM; IC50 [3]: 90.2 nM; IC50 (SK-MEL-5 Melanoma): 35.6 nM; IC50 (SK-MEL-28 Melanoma): 138 nM; IC50 (A2058 Melanoma): 84.2 nM; IC50 (IGR-37 Melanoma): 72.5 nM |
| CC[C@H](C)[C@@H]([C@@H](CC(=O)N1CCC[C@H]1[C@H](OC)[C@@H](C)C(=O)N[C@@H](Cc1ccccc1)C(=O)O)OC)N(C)C(=O)[C@@H](NC(=O)[C@H](C(C)C)N(C)CC)C(C)C [Compound 4, Ethyl-AF] (X19-V[Dil][Dolaproine]F-OH) | 23.2 nM | 145 nM | – |
| CCCN(C)[C@H](C(=O)N[C@H](C(=O)N(C)[C@@H]([C@@H](C)CC)[C@@H](CC(=O)N1CCC[C@H]1[C@H](OC)[C@@H](C)C(=O)N[C@@H](Cc1ccccc1)C(=O)O)OC)C(C)C)C(C)C [Compound 5, Propyl-AF] (X15-V[Dil][Dolaproine]F-OH) | 24.5 nM | 82.1 nM | – |
| CCCCN(C)[C@H](C(=O)N[C@H](C(=O)N(C)[C@@H]([C@@H](C)CC)[C@@H](CC(=O)N1CCC[C@H]1[C@H](OC)[C@@H](C)C(=O)N[C@@H](Cc1ccccc1)C(=O)O)OC)C(C)C)C(C)C [Compound 6, Butyl-AF] (X10-V[Dil][Dolaproine]F-OH) | 14.3 nM | 47.9 nM | – |
| CCCCCN(C)[C@H](C(=O)N[C@H](C(=O)N(C)[C@@H]([C@@H](C)CC)[C@@H](CC(=O)N1CCC[C@H]1[C@H](OC)[C@@H](C)C(=O)N[C@@H](Cc1ccccc1)C(=O)O)OC)C(C)C)C(C)C [Compound 7, Pentyl-AF] (X13-V[Dil][Dolaproine]F-OH) | 6.6 nM | 35.7 nM | – |
| CCCCCCN(C)[C@H](C(=O)N[C@H](C(=O)N(C)[C@@H]([C@@H](C)CC)[C@@H](CC(=O)N1CCC[C@H]1[C@H](OC)[C@@H](C)C(=O)N[C@@H](Cc1ccccc1)C(=O)O)OC)C(C)C)C(C)C [Compound 8, Hexyl-AF] (X9-V[Dil][Dolaproine]F-OH) | 6.9 nM | 40.9 nM | – |
| CCCCCCCN(C)[C@H](C(=O)N[C@H](C(=O)N(C)[C@@H]([C@@H](C)CC)[C@@H](CC(=O)N1CCC[C@H]1[C@H](OC)[C@@H](C)C(=O)N[C@@H](Cc1ccccc1)C(=O)O)OC)C(C)C)C(C)C [Compound 9, Heptyl-AF] (X20-V[Dil][Dolaproine]F-OH) | 7.7 nM | 88.5 nM | – |
| CCCCCCCCN(C)[C@H](C(=O)N[C@H](C(=O)N(C)[C@@H]([C@@H](C)CC)[C@@H](CC(=O)N1CCC[C@H]1[C@H](OC)[C@@H](C)C(=O)N[C@@H](Cc1ccccc1)C(=O)O)OC)C(C)C)C(C)C [Compound 10, Octyl-AF] (X14-V[Dil][Dolaproine]F-OH) | 3.9 nM | 55.9 nM | – |
| CCCCCCCCCN(C)[C@H](C(=O)N[C@H](C(=O)N(C)[C@@H]([C@@H](C)CC)[C@@H](CC(=O)N1CCC[C@H]1[C@H](OC)[C@@H](C)C(=O)N[C@@H](Cc1ccccc1)C(=O)O)OC)C(C)C)C(C)C [Compound 11, Nonyl-AF] (X11-V[Dil][Dolaproine]F-OH) | 1.8 nM | 35.4 nM | – |
| CCCCCCCCCCN(C)[C@H](C(=O)N[C@H](C(=O)N(C)[C@@H]([C@@H](C)CC)[C@@H](CC(=O)N1CCC[C@H]1[C@H](OC)[C@@H](C)C(=O)N[C@@H](Cc1ccccc1)C(=O)O)OC)C(C)C)C(C)C [Compound 12, Decyl-AF] (X12-V[Dil][Dolaproine]F-OH) | 1 nM | 59.2 nM | – |
